Format in all cases: in vivo
The test system of data set [1] is Silverleaf Whitefly (Bemisia argentifolii). In words: Silverleaf whitefly test, sprayed cotton plants. To be noted: at 100 ppm; silverleaf whitefly adults; 3 days after treatment. From the text:
(§1) The active compounds are formulated in cyclohexanone as a 10,000 ppm solution supplied in tubes. The tubes are inserted into an automated electrostatic sprayer equipped with an atomizing nozzle and they serve as stock solutions for which lower dilutions are made in 50% acetone:50% water (v/v). A nonionic surfactant (Kinetic®) is included in the solution at a volume of 0.01% (v/v).
Cotton plants at the cotyledon stage (one plant per pot) are sprayed by an automated electrostatic plant sprayer equipped with an atomizing spray nozzle. The plants are dried in the sprayer fume hood and then removed from the sprayer. Each pot is placed into a plastic cup and about 10 to 12 whitefly adults (approximately 3-5 days old) are introduced. The insects are collected using an aspirator and a nontoxic Tygon® tubing connected to a barrier pipette tip. The tip, containing the collected insects, is then gently inserted into the soil containing the treated plant, allowing insects to crawl out of the tip to reach the foliage for feeding. Cups are covered with a reusable screened lid. Test plants are maintained in a growth room at about 25° C. and about 20-40% relative humidity for 3 days, avoiding direct exposure to fluorescent light (24 hour photoperiod) to prevent trapping of heat inside the cup. Mortality is assessed 3 days after treatment, compared to untreated control plants.

Data set [2] deals with boll weevil (Anthonomus grandis). In words: Boll weevil test, microtiter plates with insect diet and eggs. Particulars: 120 h, read-out: mortality in comparison with untreated controls. On the procedure: For evaluating control of boll weevil (Anthonomus grandis) the test unit consists of 24-well-microtiter plates containing an insect diet and 20-30 A. grandis eggs.
The compounds are formulated using a solution containing 75% v/v water and 25% v/v DMSO. Different concentrations of formulated compounds are sprayed onto the insect diet at 20 μl, using a custom built micro atomizer, at two replications.
After application, microtiter plates are incubated at about 23±1° C. and about 50±5% relative humidity for 5 days. Egg and larval mortality is then visually assessed.

Data set [3] concerns Orchid Thrips (Dichromothrips Corbetti). The data set can be described thus: Orchid thrips test, floral-immersion technique. To be noted: 96 h, read-out: mortality in comparison with untreated controls. On the procedure:
Dichromothrips corbetti adults used for bioassay are obtained from a colony maintained continuously under laboratory conditions. For testing purposes, the test compound is diluted to a concentration of 300 ppm (wt compound: vol diluent) in a 1:1 mixture of acetone:water (vol:vol), plus 0.01% vol/vol Kinetic® surfactant.
Thrips potency of each compound is evaluated by using a floral-immersion technique. Plastic petri dishes are used as test arenas. All petals of individual, intact orchid flowers are dipped into treatment solution and allowed to dry. Treated flowers are placed into individual petri dishes along with 10-15 adult thrips. The petri dishes are then covered with lids. All test arenas are held under continuous light and a temperature of about 28° C. for duration of the assay. After 4 days, the numbers of live thrips are counted on each flower, and along inner walls of each petri dish. The level of thrips mortality is extrapolated from pre-treatment thrips numbers.

The test system of data set [4] is Tobacco Budworm (Heliothis virescens). The data set can be described thus: Tobacco budworm test, microtiter plates with insect diet and eggs. Particulars: 120 h, read-out: mortality in comparison with untreated controls. On the procedure:
The test unit consisted of 96-well-microtiter plates containing an insect diet and 15-25 H. virescens eggs. The compounds were formulated using a solution containing 75% v/v water and 25% v/v DMSO. Different concentrations of formulated compounds were sprayed onto the insect diet at 10 μl, using a custom built micro atomizer, at two replications.
After application, microtiter plates were incubated at about 28±1° C. and about 80±5% relative humidity for 5 days. Egg and larval mortality was then visually assessed.

Data set [5] concerns Mediterranean fruitfly (Ceratitis capitata). The data set can be described thus: Mediterranean fruitfly test, microtiter plates with insect diet and eggs. Particulars: 120 h, read-out: mortality in comparison with untreated controls. On the procedure:
For evaluating control of Mediterranean fruitfly (Ceratitis capitata) the test unit consists of microtiter plates containing an insect diet and 50-80 C. capitata eggs.
The compounds are formulated using a solution containing 75% v/v water and 25% v/v DMSO. Different concentrations of formulated compounds are sprayed onto the insect diet at 5 μl, using a custom built micro atomizer, at two replications.
After application, microtiter plates are incubated at about 28±1° C. and about 80±5% relative humidity for 5 days. Egg and larval mortality is then visually assessed.

Data set [6] has as its system vetch aphid (Megoura viciae). The data set can be described thus: Vetch aphid test, broad bean leaf disks in microtiter plates. To be noted: foliar, 120 h, read-out: mortality in comparison with untreated controls. On the procedure:
For evaluating control of vetch aphid (Megoura viciae) through contact or systemic means the test unit consists of 24-well-microtiter plates containing broad bean leaf disks.
The compounds are formulated using a solution containing 75% v/v water and 25% v/v DMSO. Different concentrations of formulated compounds are sprayed onto the leaf disks at 2.5 μl, using a custom built micro atomizer, at two replications.
After application, the leaf disks are air-dried and 5-8 adult aphids placed on the leaf disks inside the microtiter plate wells. The aphids are then allowed to suck on the treated leaf disks and incubated at about 23±1° C. and about 50±5% relative humidity for 5 days. Aphid mortality and fecundity is then visually assessed.

The subject of data set [7] is Southern Armyworm (Spodoptera eridania). The data set can be described thus: Southern armyworm test, sprayed lima bean plants. Particulars: 96 h, read-out: mortality in comparison with untreated controls. On the procedure: as §1
Lima bean plants (variety Sieva) are grown 2 plants to a pot and selected for treatment at the 1st true leaf stage. Test solutions are sprayed onto the foliage by an automated electrostatic plant sprayer equipped with an atomizing spray nozzle. The plants are dried in the sprayer fume hood and then removed from the sprayer. Each pot is placed into perforated plastic bags with a zip closure. About 10 to 11 armyworm larvae are placed into the bag and the bags zipped closed. Test plants are maintained in a growth room at about 25° C. and about 20-40% relative humidity for 4 days, avoiding direct exposure to fluorescent light (24 hour photoperiod) to prevent trapping of heat inside the bags. Mortality and reduced feeding are assessed 4 days after treatment, compared to untreated control plants.

Data set [8] deals with Rice Green Leafhopper (Nephotettix virescens). In words: Rice green leafhopper test, sprayed rice seedlings. To be noted: 72 h, read-out: mortality in comparison with untreated controls. On the procedure: Rice seedlings are cleaned and washed 24 hours before spraying. The active compounds are formulated in 50:50 acetone:water (vol:vol), and 0.1% vol/vol surfactant (EL 620) is added. Potted rice seedlings are sprayed with 5 ml test solution, air dried, placed in cages and inoculated with 10 adults. Treated rice plants are kept at about 28-29° C. and relative humidity of about 50-60%. Percent mortality is recorded after 72 hours.

In data set [9] the test system is Colorado Potato Beetle (Leptinotarsa decemlineata). In words: Colorado potato beetle test, sprayed eggplant foliage. To be noted: foliar, 96 h, read-out: mortality in comparison with untreated controls. As for the experimental part:
as §1
Eggplants are grown 2 plants to a pot and are selected for treatment at the 1st true leaf stage. Test solutions are sprayed onto the foliage by an automated electrostatic plant sprayer equipped with an atomizing spray nozzle. The plants are dried in the sprayer fume hood and then removed from the sprayer. The treated foliage is then cut and removed from the pot and placed in a Petri dish lined with moistened filter pa-per. Five beetle larvae are introduced into each Petri dish and the dish is covered by a Petri dish lid. Petri dishes are maintained in a growth room at about 25° C. and about 20-40% relative humidity for 4 days, avoiding direct exposure to fluorescent light (24 hour photoperiod) to prevent trapping of heat inside the dishes. Mortality and reduced feeding are assessed 4 days after treatment, compared to untreated control plants.

Data set [10] has as its system Diamond Back Moth (Plutella Xylostella). The data set can be described thus: Diamond back moth test, cabbage leaf dip. To be noted: foliar, 72 h, read-out: mortality in comparison with untreated controls. As for the experimental part: The active compound is dissolved at the desired concentration in a mixture of 1:1 (vol/vol) distilled water:aceteone. Surfactant (Alkamuls® EL 620) is added at a rate of 0.1% (vol/vol). The test solution is prepared at the day of use.
Leaves of cabbage are dipped in test solution and air-dried. Treated leaves are placed in petri dishes lined with moist filter paper and inoculated with ten 3rd instar larvae. Mortality is recorded 72 hours after treatment. Feeding damages are also recorded using a scale of 0-100%.

In data set [11] the test system is Cowpea Aphid (Aphis Craccivora). The data set can be described thus: Cowpea aphid test, sprayed potted cowpea plants. Particulars: read-out: mortality in comparison with untreated controls. As for the experimental part:
If not otherwise specified the test solutions are prepared as follow:
The active compound is dissolved at the desired concentration in a mixture of 1:1 (vol:vol) distilled water:aceton. The test solution is prepared at the day of use and in general at concentrations of […].
Potted cowpea plants colonized with approximately 100-150 aphids of various stages are sprayed after the pest population has been recorded. Population reduction is assessed after 24, 72, and 120 hours.

In the case of `CC(C)[S+]([O-])NC(=O)c1cc(Br)cc(Br)c1NC(=O)c1cc(C(F)(F)F)nn1-c1ncccc1Cl` (stereo not drawn) [Compound 1-7], the “mortality in comparison with untreated controls” value in [1] was “over 75%”.

One may read the mortality as the share of the test organisms that died. Regarding `CSNC(=O)c1cc(Cl)cc(C)c1NC(=O)c1cc(C(F)(F)F)nn1-c1ncccc1Cl` [Compound 1-22, N-[4-chloro-2-methyl-6-(methylsulfanylcarbamoyl)phenyl]-2-(3-chloro-2-pyridyl)-5-(trifluoromethyl)pyrazole-3-carboxamide], the mortality at 2500 ppm in data set [2], in data set [4], in [5] and in data set [6] was greater than 75% throughout. Also, the mortality at 500 ppm in data set [3], in data set [8] and in data set [10] was greater than 75% throughout. In addition, the mortality at 1 ppm in data set [7] and in [9] was greater than 75% throughout.

Consider `Cc1cc(Cl)cc(C(=O)N[S+](C)[O-])c1NC(=O)c1cc(C(F)(F)F)nn1-c1ncccc1Cl` (stereo not drawn) [Compound 1-28, N-[4-chloro-2-methyl-6-(methylsulfinylcarbamoyl)phenyl]-2-(3-chloro-2-pyridyl)-5-(trifluoromethyl)pyrazole-3-carboxamide], for which the mortality at 2500 ppm in [2], in data set [4], in data set [5] and in [6] was greater than 75% each time. The mortality at 500 ppm in [3], in [8], in [11] and in [10] was greater than 75% throughout.

The values above are taken from patent US9533968B2, “N-thio-anthranilamide compounds and their use as pesticides” (BASF SE, priority 2012, dated 2017).
